The subject of one data set is SSTR2^high AR42J cells. Briefly: Internalization assay. The following applies: after 60 min, ~5 × 10^5 CPM, acid strip (glycine pH 3.0), gamma counting, n = 3. The format is cell-based.
The subject of data set [1] is SSTR2^high AR42J and SSTR2^low PC3-Flu cells. Briefly: SSTR2-selective cell uptake assay. The following applies: 1 h incubation at r.t., binding buffer (20 mM tris, 150 mM NaCl, pH 7.4), ~7.1 × 10^5 CPM, gamma counting, uptake in SSTR2^low cells set at 1, n = 3. The format is cell-based.
The target in another data set is T1, human cathepsin B (Homo sapiens, UniProt P07858).
T1 construct: purchased Sino Biological Inc
Briefly: In vitro cathepsin-B-mediated release assay. The format is in vitro ADME. The conditions noted are these: 37 °C, 1 h. On the procedure: A comparative cathepsin-B-mediated release assay was performed with compound 13 in the presence vs. absence of human cathepsin B (Sino Biological Inc., Chesterbrook, PA, USA). Briefly, compound 13 (150 µg) was dissolved in 60 µL of 100 mM citrate buffer (pH 5.5), followed by adding 300 µg of cysteine. Then, 20 µg of human cathepsin B in 40 µL of 100 mM citrate buffer was added to the mixture and incubated at 37 °C for 1 h. At the end of the incubation, the solution (20 µL) was sampled for HPLC and LC–MS analysis. Controls of this assay included compound 13 without being exposed to cathepsin B, as well as cathepsin B itself processed under the same conditions.

Another data set has as its system PC3 cells. As to the kind of experiment: Cell viability assay (MTT). The format is cell-based, human. The following applies: OD 570 nm, read-out: EC50 (cytotoxicity). As to the method: PC3 cells (3000–5000 cells/well) were seeded onto a 96-well plate. After one day, freshly prepared RPMI media containing different concentrations (0, 1, 5, 10 µM; n = 5) of FTY720 (Selleckchem, Houston, TX, USA) or compound 10 (0, 1, 3, 15, 30 µM; n = 5) were added to the cells, and the mixtures were incubated for 48 or 72 h. The relative number of viable cells was determined by an assay using 3-(4,5-dimethylthiazol-2-yl) -2,5-diphenyltetrazolium bromide (MTT) (Sigma-Aldrich, Saint-Louis, MO, USA), according to the manufacturer’s instructions, on a microplate reader at OD 570 nm. The experiment was repeated in triplicate, and data were represented as the mean ± standard deviation (s.d).

For data set [2], the system named is SSTR2^high PC3_VC xenografts. As to the kind of experiment: Small animal PET/CT imaging, tumor uptake in SSTR2^high xenograft. The following applies: same mice, i.v. 3–4.4 MBq, 60-min dynamic PET.
Data set [3] has as its system SSTR2^low PC3_sgPTP1B xenografts. As to the kind of experiment: Small animal PET/CT imaging, tumor uptake in SSTR2^low xenograft. The conditions noted are these: same mice, i.v. 3–4.4 MBq, 60-min dynamic PET.

Consider five molecules from paper PMC9967013, “A Theranostic Small-Molecule Prodrug Conjugate for Neuroendocrine Prostate Cancer” (Pharmaceutics, 2023).

Where two headings read alike, the source gives them in different places.

Broadly, the EC50 is the concentration giving half of the maximal effect.

For the molecule “[^64Cu]Cu-DOTA-PEG3-TZ(PEG4-Octr)-PEG2-Trz-PEG3-Val-Cit-pABOC-FTY720 (disulfide)”, the “internalized percentage (Internalized/Total Bound%)” value in the data set on SSTR2^high AR42J cells is on record as “approximately 40%”. Further, the “normalized uptake, accumulation in SSTR2^high AR42J cells relative to SSTR2^low PC3-Flu cells” value in data set [1] is “six-fold higher”.

Regarding “DOTA-PEG3-TZ(PEG4-Octr)-PEG2-Trz-PEG3-Val-Cit-pABOC-FTY720 (disulfide) [Compound 13]”, the “cathepsin-B-mediated release of FTY720” value with human cathepsin B (150 µg compound, 20 µg human cathepsin B, 100 mM citrate buffer pH 5.5, cysteine, HPLC and LC-MS read-out) is reported as “cathepsin-B-mediated release of FTY720 was further confirmed”. The “release of FTY720 in the absence of cathepsin B (control)” value with human cathepsin B (same conditions without cathepsin B: 100 mM citrate buffer pH 5.5, cysteine, LC-MS read-out (FTY720 peak 366.0488 [M + 2H2O + Na]+)) is given as “the peak of 366.0488 was absent”.

In the case of `CCCCCCCCc1ccc(CCC(N)(CO)CO)cc1` [FTY720, fingolimod, reference compound], the EC50 is ~5 µM in the data set with PC3 cells (Homo sapiens, PC-3, 48 h incubation) and ~5 µM in the data set with PC3 cells (Homo sapiens, PC-3, 72 h incubation).

Turning to `O=C([O-])CN(CCN(CC(=O)[O-])Cc1cc(CCC(=O)NCCCCCC(=O)NCCCC[C@H](NC(=O)N[C@@H](CCC(=O)O)C(=O)O)C(=O)O)ccc1[O-])Cc1cc(CCC(=O)O)ccc1[O-].[68Ga+3].[OH3+]` [[^68Ga]Ga-PSMA-11], in data set [2], the “tumor uptake in SSTR2^high PC3-VC tumors (in words)” value was “low uptake”. For the same molecule, in data set [3], the “tumor uptake in SSTR2^low PC3_sgPTP1B tumors (in words)” value is “low uptake”.

In the case of `CCCCCCCCc1ccc(CCC(CO)(CO)NC(=O)OCc2ccc(NC(=O)[C@H](CCCNC(N)=O)NC(=O)[C@@H](NC(=O)CCOCCOCCOCCN=[N+]=[N-])C(C)C)cc2)cc1` [Compound 10, Val-Cit-pABOC-FTY720], the EC50 in the data set on PC3 cells (48 h incubation) and in the data set on PC3 cells (72 h incubation) was > 15 µM throughout.
